Reference: US9861642B2, “Methods for diagnosing and treating asthma” (The Children's Research Institute, priority 2010, dated 2018)

Assays:
Format in all cases: cell-based
[1] = test system: asthmatic primary differentiated human airway (bronchial) epithelia; experiment: BrdU flow cytometry of mitotically active cells after scrape-wounding, asthmatic epithelia; conditions: wounded asthmatic epithelia, 20 nM 2 h pulses every 24 h, harvest +48 h, mean±SEM
Excerpt: Normal (n=3) and asthmatic (n=6) primary differentiated human airway (i.e. bronchial) epithelia grown in 12-well plates on collagen-coated Transwell membrane inserts at an air-liquid interface were obtained commercially (#AIR-606 and #AIR-606-Asthma; MatTek Corporation, Ashland, Mass.). Donors underwent bronchoscopic brushing to acquire epithelial cells. Descriptive donor information provided by MatTek Corporation for the individuals from whom cells were obtained is shown in Table 1.
(§1) On arrival, the in vitro epithelia were washed with phosphate buffered saline (PBS) and the basal medium was replaced with proprietary defined medium supplied by the manufacturer. Cells were equilibrated at 37° C. and 5% CO2 for 16 h followed by medium replacement with identical proprietary medium lacking glucocorticoids and epidermal growth factor (EGF). This condition was maintained for an additional 22 h. […]
(§2) An in vitro epithelial injury model that allows for the study of epithelial repair processes in the lung was adapted for use in this study. […] In some experiments, wounds were imaged daily (i.e. 0, +24, +48 h) using a 16× phase contrast objective lens and wound area was measured in triplicate by a single operator blinded to the culture conditions using ImageJ Software (Rasband. ImageJ. Bethesda, Md., USA: U. S. National Institutes of Health; 1997-2009). […]

[2] = test system: asthmatic primary differentiated human airway epithelia; experiment: Flow cytometric cell cycle analysis (7-AAD) of BrdU+ cells from wounded asthmatic epithelia; conditions: Example 2, wounded asthmatic epithelia, 2 h pulses at -26, -2, +22, +46 h
Description: (§3) On arrival, the in vitro epithelia were washed with phosphate buffered saline (PBS) and the basal medium was replaced with proprietary defined medium supplied by the manufacturer. Cells were equilibrated at 37° C. and 5% CO2 for 16 h followed by medium replacement with identical proprietary medium lacking glucocorticoids and epidermal growth factor (EGF). This condition was maintained for an additional 22 h. Upon completion (i.e. −26 h on the experimental timeline shown in FIG. 1, intermittent glucocorticoid exposures began: Dexamethasone (DEX) (20 nM) or PBS vehicle (VEH) was added to the apical and basolateral epithelial surfaces for 2 h. At −24 h, the medium was replaced with glucocorticoid- and EGF-free medium. This two-hour DEX/VEH pulse was repeated every 24 h (i.e. at −2, +22, and +46 h) thereafter until cell harvest at +48 h.
An in vitro epithelial injury model that allows for the study of epithelial repair processes in the lung was adapted for use in this study. Briefly, at 0 h on the timeline in FIG. 1, epithelia were scraped in two perpendicular lines with a p1000 pipette tip and placed in bromodeoxyuridine (BrdU)-containing (10 μM) medium. BrdU-containing medium was changed at +24 h following the DEX/VEH pulse mentioned previously. Epithelia were incubated at 37° C. and 5% CO2 until +48 h. In some experiments, wounds were imaged daily (i.e. 0, +24, +48 h) using a 16× phase contrast objective lens and wound area was measured in triplicate by a single operator blinded to the culture conditions using ImageJ Software (Rasband. ImageJ. Bethesda, Md., USA: U. S. National Institutes of Health; 1997-2009). Contrast was enhanced equally in all images to improve wound visualization.
Epithelia were washed once with PBS and harvested at +48 h (FIG. 1) for analysis by flow cytometry. A single cell suspension was achieved by exposure for 5 minutes with trypsin-ethylenediaminetetraacetic acid (EDTA) solution (#T3924; Sigma-Aldrich, St. Louis, Mo.) followed by filtration through a 40 μm strainer. Cells were simultaneously labeled with the following according to the manufacturers' protocols: 1) Carboxyfluorescein FLICA Apoptosis Poly-Caspase Detection Kit (Immunochemistry Technologies, LLC, Bloomington, Minn.) and 2) APC BrdU Flow Kit containing 7-AAD (amino-actinomycin-D) (BD Biosciences, San Jose, Calif.). Flow cytometry data were generated on a FACSCalibur™ System (BD Biosciences). Samples were gated to study 7-AAD content in BrdU^+FLICA^− cells. Data were analyzed by means of the cell cycle analysis feature of FlowJo 7.6 (Tree Star, Inc., Ashland, Oreg.) using a Watson (Pragmatic) model with equal coefficients of variation for the G1/G0 and G2/M peaks
Human fully-differentiated (air-liquid interface) normal (n=3) and asthmatic (n=3) primary airway epithelia, lacking inflammatory cells, were cultured in glucocorticoid-free medium beginning at −48 h. The cells were pulsed with mitotic cell cycle synchrony-inducing (i.e. dexamethasone, simvastatin) compounds or vehicle for 2 h at −26, −2, +22, and +46 h. Cultures were mechanically scrape-wounded at 0 h and thereafter exposed continuously to bromodeoxyuridine (BrdU) to identify mitotically active cells.

[3] = test system: normal primary differentiated human airway epithelia; experiment: Flow cytometric cell cycle analysis (7-AAD) of BrdU+ cells from wounded normal epithelia; conditions: with pulse DEX, +48 h
Description: as §1, §2
Epithelia were washed once with PBS and harvested at +48 h (FIG. 1) for analysis by flow cytometry. […] Data were analyzed by means of the cell cycle analysis feature of FlowJo 7.6 (Tree Star, Inc., Ashland, Oreg.) using a Watson (Pragmatic) model with equal coefficients of variation for the G1/G0 and G2/M peaks

[4] = test system: asthmatic primary differentiated human airway epithelia; experiment: Mechanical scrape-wound healing (wound area, ImageJ), asthmatic epithelia; conditions: 20 nM 2 h pulses every 24 h
Description: as §3, §2

[5] = test system: normal primary differentiated human airway epithelia; experiment: Mechanical scrape-wound healing (wound area, ImageJ), normal epithelia; conditions: 20 nM 2 h pulses every 24 h
Description: as §3, §2

Structure (SMILES) | BrdU+ cells, % of total cells [1] | BrdU+ cells in G1/G0 [2] | BrdU+ cells in G2/M [2] | BrdU+ cells in S [2] | BrdU+ cells in G1/G0 [3] | wound area decrease from 0 to +48 h [4] | wound area decrease from 0 to +48 h [5]
C[C@@H]1C[C@H]2[C@@H]3CCC4=CC(=O)C=C[C@]4(C)[C@@]3(F)[C@@H](O)C[C@]2(C)[C@@]1(O)C(=O)CO [DEX, Dexamethasone] | 0.55±0.13% | 72±5% | 20±4% | 8±2% | > 70% | 75.7±9% | 86.8±5.4%
CCC(C)(C)C(=O)O[C@H]1C[C@@H](C)C=C2C=C[C@H](C)[C@H](CC[C@@H]3C[C@@H](O)CC(=O)O3)[C@H]21 [simvastatin] | – | 75±6% | 14±3% | 11±4% | – | – | –
